Results from paper PMC5833749 (Cell Death & Disease, 2018).
Where “and” joins values, the source holds several entries; their conditions need not be identical. Equal entries are not always repeated. Entries after “also recorded” stand apart in the source; their conditions may differ. Where two headings read alike, the source gives them in different places.

Columns and labels:
L929sAhFas cells [1] = assay: mTNF-induced RIPK1-dependent necroptosis; format: cell-based, murine
Experimental: (§1) Data represent mean values ±S.E.M., n = 6. […] Data represent mean values ±S.E.M. (g–l).
(§2) Data were analysed using the Columbus software package (PerkinElmer).

hAurora kinase B = biological target: T1, hAurora kinase B (Homo sapiens, UniProt Q96GD4); assay: In vitro ADP-Glo kinase assay; format: biochemical; conditions: dose response, Fig. 3c
T1 construct: purchased Promega V9181
T1 sequence (Q96GD4 whole entry): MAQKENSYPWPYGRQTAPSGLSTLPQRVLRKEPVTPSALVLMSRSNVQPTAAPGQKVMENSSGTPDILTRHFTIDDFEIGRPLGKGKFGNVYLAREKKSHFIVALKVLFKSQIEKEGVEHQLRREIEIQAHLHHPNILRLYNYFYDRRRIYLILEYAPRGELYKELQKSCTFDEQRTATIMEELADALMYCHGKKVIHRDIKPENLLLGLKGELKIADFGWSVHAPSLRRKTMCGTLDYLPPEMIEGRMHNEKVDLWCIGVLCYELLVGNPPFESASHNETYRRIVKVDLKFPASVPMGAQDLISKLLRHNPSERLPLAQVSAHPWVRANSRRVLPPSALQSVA
Experimental: (§3) Compounds (concentrations as indicated) were co-incubated with recombinant hRIPK1 (100 nM) (produced in our laboratory), hAurora kinase A (25 nM) or hAurora kinase B (25 nM) (ADP-Glo^TM kinase assay + Aurora A/Aurora B kinase enzyme system, Promega, V9081 and V9181). For hRIPK1, the kinase assay buffer (2×) contains 50 mM HEPES pH 7.5, 30 mM MgCl2, 50 mM NaCl, 0.5 mg/mL BSA, 0.02% CHAPS and 1 mM DTT. For the Aurora kinases, the kinase assay buffer was used from the promega assay (V9081, V9181). Next, the in vitro ADP-Glo^TM kinase assay (Promega, V6930) was used to determine kinase activity. The assay was performed according to the manufacturer’s protocol. The primary kinase reaction was carried out for 4 h at room temperature and a 2:2:1 ratio of kinase reaction volume to ADP-Glo reagent volume to kinase detection reagent volume was used.

hAurora kinase A = biological target: T2, hAurora kinase A (Homo sapiens, UniProt O14965); assay: In vitro ADP-Glo kinase assay; format: biochemical; conditions: dose response, Fig. 3b
T2 construct: purchased Promega V9081
T2 sequence (O14965 1-403): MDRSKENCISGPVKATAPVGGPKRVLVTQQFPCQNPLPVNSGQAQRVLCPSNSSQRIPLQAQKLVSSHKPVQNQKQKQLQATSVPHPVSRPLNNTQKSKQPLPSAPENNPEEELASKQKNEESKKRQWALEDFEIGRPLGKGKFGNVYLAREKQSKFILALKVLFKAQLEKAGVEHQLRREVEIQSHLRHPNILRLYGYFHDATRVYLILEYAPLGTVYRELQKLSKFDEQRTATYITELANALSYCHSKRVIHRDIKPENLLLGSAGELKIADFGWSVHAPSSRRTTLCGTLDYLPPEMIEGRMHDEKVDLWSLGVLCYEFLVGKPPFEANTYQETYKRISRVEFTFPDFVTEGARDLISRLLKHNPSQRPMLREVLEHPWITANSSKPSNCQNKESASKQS
Experimental: as §3

recombinant hRIPK1 = biological target: T3, recombinant hRIPK1 (Homo sapiens, UniProt Q13546); assay: In vitro ADP-Glo kinase assay; format: biochemical; conditions: dose response, Fig. 3a
T3 construct: made in house
T3 sequence (Q13546 1-671): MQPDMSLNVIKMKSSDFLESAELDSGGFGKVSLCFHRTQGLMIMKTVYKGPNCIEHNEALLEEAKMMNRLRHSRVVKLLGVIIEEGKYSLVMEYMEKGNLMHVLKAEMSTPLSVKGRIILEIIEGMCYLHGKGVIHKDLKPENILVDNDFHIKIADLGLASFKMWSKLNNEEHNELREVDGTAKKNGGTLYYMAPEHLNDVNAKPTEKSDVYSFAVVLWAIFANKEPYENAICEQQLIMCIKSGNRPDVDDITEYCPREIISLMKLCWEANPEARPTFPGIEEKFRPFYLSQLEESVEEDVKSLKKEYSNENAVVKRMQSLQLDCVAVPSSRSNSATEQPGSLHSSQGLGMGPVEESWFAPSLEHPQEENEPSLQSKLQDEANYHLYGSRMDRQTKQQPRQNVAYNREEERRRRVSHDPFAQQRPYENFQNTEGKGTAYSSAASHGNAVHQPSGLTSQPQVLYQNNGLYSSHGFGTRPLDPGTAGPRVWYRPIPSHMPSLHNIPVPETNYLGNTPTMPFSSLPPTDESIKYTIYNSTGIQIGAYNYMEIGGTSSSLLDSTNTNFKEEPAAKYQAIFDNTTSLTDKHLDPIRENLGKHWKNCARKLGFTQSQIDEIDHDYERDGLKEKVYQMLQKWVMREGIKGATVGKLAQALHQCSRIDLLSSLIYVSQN
Experimental: as §3

L929sAhFas cells [2] = assay: High-content imaging of cell growth, nuclear area and nuclear roundness (cytokinesis defects); format: cell-based, murine; conditions: for Cytokinesis defects (nuclear roundness, nuclear area): 10 µM, 24 h
Experimental: as §1, §2

L929sAhFas cells [3] = assay: mTNF+zVAD.fmk-induced necroptosis (sensitising condition)
L929sAhFas cells [4] = assay: Cellular screening of Tozasertib analogues for cytokinesis defects and inhibition of necroptosis; format: cell-based, murine; conditions: 3 µM, 0.5 h or 24 h pre-treatment
Experimental: Next, cells were left unstimulated or stimulated with mTNF (40 ng/mL) + zVAD.fmk (10 µM) for […]. Proliferation, nuclear area and cell death were quantified by staining the cells with propidium iodide (PI) (3 µM) and Hoechst (1 µM) for image analysis with BD pathway. […] Significance was analysed using repeated measurements data analysis. […] Cells were stimulated for 7 h with mTNF and 4 h with mTNF + zVAD.fmk. Data represent mean values ±S.E.M. (n = 2). […] Dose responses were included in the screening (b–c) assay conditions.
as §2

L929sAhFas cells [5] = assay: Cytotoxicity of the compound alone (% PI-negative cells); format: cell-based, murine; conditions: 10 µM or lower, 24 h
Text: Supplementary Figure 1. […] Data represent mean ± S.E.M. of 3 independent experiment. One-way Anova with Tukey correction for multiple testing has been performed.

L929sAhFas cells [6] = assay: RIPK1-independent apoptosis by agonistic anti-Fas antibody; format: cell-based, murine; conditions: 10 µM, pre-treated 1 h, agonistic anti-Fas antibody 250 ng/mL
L929sAhFas cells [7] = assay: Clonogenic assay (colony-forming capacity); format: cell-based, murine
Experimental: […]. […] Data represent mean values ±S.E.M., n = 6. […] […]. […] Data represent mean values ±S.E.M. (g–l).
Next, treatment was removed and 50 cells/condition were seeded. After 10 days, cells were fixed with 4% PFA for 10 min. After fixation, cells were stained with a 0.01% crystal violet solution for 1 h. Cells were washed with PBS, dried overnight and images were taken. Colonies were counted using ImageJ.

recombinant mRIPK3 = recombinant mRIPK3 (Mus musculus, UniProt Q9QZL0); assay: In vitro ADP-Glo kinase assay; format: biochemical; conditions: 10 µM; mRIPK3 15 nM
recombinant mRIPK3, sequence (Q9QZL0 whole entry): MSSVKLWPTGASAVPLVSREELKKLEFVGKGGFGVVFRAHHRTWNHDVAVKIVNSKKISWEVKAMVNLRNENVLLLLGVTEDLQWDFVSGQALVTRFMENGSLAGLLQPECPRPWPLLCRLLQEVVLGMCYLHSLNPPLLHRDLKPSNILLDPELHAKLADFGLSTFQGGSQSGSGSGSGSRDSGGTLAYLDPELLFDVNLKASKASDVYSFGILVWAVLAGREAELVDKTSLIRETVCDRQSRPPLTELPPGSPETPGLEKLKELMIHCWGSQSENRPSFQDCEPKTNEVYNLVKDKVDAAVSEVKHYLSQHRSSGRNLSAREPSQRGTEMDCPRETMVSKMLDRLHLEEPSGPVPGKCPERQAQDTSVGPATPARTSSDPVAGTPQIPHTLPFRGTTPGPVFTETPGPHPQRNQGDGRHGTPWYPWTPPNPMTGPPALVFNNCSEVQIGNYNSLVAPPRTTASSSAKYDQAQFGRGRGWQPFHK
Experimental: Supplementary Figure 5. […] An in vitro ADP-Glo kinase assay using recombinant mRIPK3 (15 nM) (A) was performed. […] Data represent mean value ± S.E.M. of 3 independent experiment. One-way ANOVA with Tukey correction for multiple testing has been performed (**** p<0.0001 ).

MEF cells = assay: RIPK1-dependent apoptosis (hTNF+Tak1i); format: cell-based, murine; conditions: 10 µM, pre-treated 1 h, hTNF 20 ng/mL + Tak1i 1 µM
[8] = tested on: endogenous Aurora A (Aur A) and B (Aur B); assay: Immunoblot of autophosphorylation of endogenous Aurora A and B; format: cell-based, murine; conditions: 10 µM, 16 h
Experimental: Then, a clonogenic assay was performed to determine colony-forming capacity. Quantification was performed using ImageJ. […] Data represent mean values ±S.E.M., n = 6. […] Data represent mean values ±S.E.M. (g–l).
Antibodies used were anti-phospho-Aurora A (Thr288)/Aurora B (Thr232)/Aurora C (Thr198) (D13A11) (Cell Signaling, #2914, Danvers, MA, USA), anti-tubulin-HRP (abcam, ab21058, Cambridge, UK). After treatments, cells were washed twice with PBS and lysed with 2× Laemmli buffer directly. These samples were used for SDS-PAGE and immunoblotting. Tubulin was used as loading control.

HT29 cells = assay: hTNF+Tak1i+zVAD.fmk-induced necroptosis
[9] = pre-treated 1 h, mTNF 20 ng/mL 5 h
[10] = Mus musculus, read-out: Necroptosis IC50, Aurora inhibitor panel, dose-response 10-0.0022 µM, pre-treated 1 h, mTNF 20 ng/mL 5 h, nonlinear regression

Compound: Cc1csc(-c2nnc(Nc3ccc(Oc4ncccc4-c4ccnc(N)n4)cc3)c3ccccc23)c1 [AMG-900]
- Inhibition of TNF-induced necroptosis by Aurora kinase inhibitors (in words) (L929sAhFas cells [1]; [9]): cannot inhibit necroptosis; also recorded: not able to protect

Compound: CN1C(=O)NC(Cc2c[nH]c3c(Cl)cccc23)C1=O (centres unmarked) [Nec-1s, Necrostatin-1s]
- IC50 (L929sAhFas cells [1]; Aurora inhibitor panel, dose-response 10-0.0022 µM, pre-treated 1 h, mTNF 20 ng/mL 5 h, nonlinear regression, read-out: Necroptosis IC50): 367 nM
- IC50 (L929sAhFas cells [1]; pre-treatment 1 h, mTNF 20 ng/mL 5 h, Probit analysis, read-out: Necroptosis L929-mTNF IC50): 149 nM
- Inhibition of hAur B kinase activity (in words) (hAurora kinase B): only inhibits recombinant hRIPK1
- Inhibition of hAur A kinase activity (in words) (hAurora kinase A): only inhibits recombinant hRIPK1
- Inhibition of hRIPK1 kinase activity (in words) (recombinant hRIPK1): only inhibits recombinant hRIPK1
- Cytokinesis defects (nuclear roundness, nuclear area) (L929sAhFas cells [2]): does not result in cytokinesis defects
- IC50 (L929sAhFas cells [3]; read-out: Necroptosis L929-mTNF+zVAD IC50, pre-treatment 1 h, necroptosis treatment 3 h, Probit analysis): 240 nM

Compound: CO[C@@H](C(=O)N1Cc2n[nH]c(NC(=O)c3ccc(N4CCN(C)CC4)cc3)c2C1)c1ccccc1 [Danusertib]
- IC50 (L929sAhFas cells [1]; [10]): 13900 nM
- Inhibition of TNF-induced necroptosis by Aurora kinase inhibitors (in words) (L929sAhFas cells [1]; [9]): not able to protect

Compound: O=C(O)c1ccc(Nc2ncc3c(n2)-c2ccc(Cl)cc2C(c2c(F)cccc2F)=NC3)cc1 [MLN-8054]
- Cytokinesis and proliferation in the analogue screening (in words) (L929sAhFas cells [4]): cytokinesis inhibition
- Necroptosis in the analogue screening (in words) (L929sAhFas cells [4]; mTNF 40 ng/mL + zVAD.fmk 10 µM 3 h): without affecting RIPK1-dependent cell death

Compound: Cc1cc(Nc2cc(N3CCN(C)CC3)nc(Sc3ccc(NC(=O)C4CC4)cc3)n2)[nH]n1 [Tozasertib]
- Protection against TNF-induced RIPK1-dependent necroptosis over time (L929sAhFas cells [1]; 3 µM, pre-treated 1 h, mTNF 20 ng/mL): protects
- IC50 (L929sAhFas cells [1]; Mus musculus, L929, read-out: IC50 L929 TNF-induced necroptosis as given in the Discussion, condition not specified): 700 nM
- IC50 (L929sAhFas cells [1]; read-out: Necroptosis L929-mTNF IC50, pre-treatment 1 h, mTNF 20 ng/mL 5 h, Probit analysis): 550 nM and 554 nM
- Toxicity of the compound on itself (L929sAhFas cells [5]): not cytotoxic; also recorded: not toxic
- Inhibition of RIPK1-independent (Fas-mediated) apoptosis (L929sAhFas cells [6]): no inhibition is observed
- Mean nuclear area at highest concentration (L929sAhFas cells [2]; 48 h, highest concentration): 250 µm^2
- Mean nuclear roundness at highest concentration (L929sAhFas cells [2]; 48 h, 0 = straight line, 1 = perfect circle): 0.80
- EC50 (L929sAhFas cells [2]; Mus musculus, 48 h, read-out: Nuclear area (values represent EC50), compound treatment 48 h, Probit analysis): 554 nM
- IC50 (L929sAhFas cells [2]; Mus musculus, 48 h, read-out: Nuclear roundness IC50, compound treatment 48 h, Probit analysis): 1640 nM
- EC50 (L929sAhFas cells [2]; Mus musculus, read-out: Cytokinesis EC50 (nuclear area), Aurora inhibitor panel, dose-response 10-0.0022 µM, pre-treated 1 h, mTNF 20 ng/mL 5 h, nonlinear regression): 591 nM
- Concentration from which colony formation is impaired (L929sAhFas cells [7]; 24 h treatment): ≥ 0.2 µM
- IC50 (L929sAhFas cells [7]; Mus musculus, 24 h, read-out: Clonogenicity IC50): 122 nM
- Inhibition of recombinant mRIPK3 kinase activity (recombinant mRIPK3): does not inhibit; also recorded: not able to inhibit
- Inhibition of RIPK1-dependent apoptosis (MEF cells): inhibits RIPK1-dependent apoptosis
- Protective effect against necroptosis at 10 µM (L929sAhFas cells [3]; 10 µM, mTNF+zVAD.fmk 3 h): partially lost
- Protection against necroptosis in L929sAhFas (in words) (L929sAhFas cells [3]; pre-treated 1 h, stimulation 3 h, sensitised condition (mTNF+zVAD.fmk) per text): protect against necroptosis
- Autophosphorylation of endogenous Aurora A and B [8]: inhibition of autophosphorylation
- Protective effect against necroptosis at 10 µM (HT29 cells; 10 µM, hTNF+Tak1i+zVAD.fmk 16 h): partially lost
- Protection against necroptosis in HT29 (in words) (HT29 cells; pre-treated 1 h, hTNF+Tak1i+zVAD.fmk 17 h): protect against necroptosis

Compound: CCN(CCCOc1ccc2c(Nc3cc(CC(=O)Nc4cccc(F)c4)n[nH]3)ncnc2c1)CCOP(=O)(O)O [Barasertib]
- Inhibition of TNF-induced necroptosis by Aurora kinase inhibitors (in words) (L929sAhFas cells [1]; [9]): not able to protect

Compound: CC(C)(C)C(=O)N1N=CC[C@H]1c1ccccc1 [GSK’963]
- Cytokinesis defects (nuclear roundness, nuclear area) (L929sAhFas cells [2]): did not affect cytokinesis

Compound: O=C(Nc1cccc(Cl)c1)Nc1ncc(CCNc2ncnc3ccsc23)s1 [SNS-314]
- IC50 (L929sAhFas cells [1]; [10]): 400 nM
- IC50 (L929sAhFas cells [1]; read-out: Necroptosis IC50, Aurora inhibitor panel, dose-response 10-0.0022 µM, pre-treated 1 h, mTNF 20 ng/mL 5 h, nonlinear regression): 399 nM
